Test systems include ACHN; COLO 205; DU-145; EKVX; HCT-116; HCT-15; M14; MDA-MB-231; MDA-N; MOLT-4; NCI-H460; OVCAR-4; OVCAR-5; PC-3; SK-OV-3; SN12C; SNB-19; SW-620; T47D; UO-31.
What all share (assay): NCI-60 cell line screen, 48 h

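These data come from cells grown in 96-well plates and exposed to compound for 48 hours at five concentrations. At the GI50, growth is halved.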 Activity calls are given as the source filed them. No stated cut-off is given here; in the data, active = GI50 up to about 1.1 µM and inactive = higher.

With `CC(C)(CCc1nc2ccccc2[nH]1)C(=O)O`, the GI50 with ACHN was > 100 µM (inactive); in the assay on COLO 205, > 100 µM (inactive); in the assay with DU-145, > 100 µM (inactive); in the assay on EKVX, > 100 µM (inactive); in the assay with HCT-116 it was > 100 µM (inactive); in the assay on HCT-15 it was greater than 100 µM. Moreover, the GI50 with M14, with MDA-MB-231, in the assay with MDA-N, in the assay with MOLT-4, in the assay with NCI-H460 and in the assay with OVCAR-4 was > 100 µM (inactive) throughout. For the same compound, the GI50 with OVCAR-5, with PC-3, in the assay with SK-OV-3, in the assay with SN12C, in the assay with SNB-19 and with SW-620 was > 100 µM (inactive) in each case. For the same compound, the GI50 in the assay on T47D and in the assay on UO-31 was > 100 µM (inactive) in each case.
Take `C=C(C)C1(Sc2ccc(OC)cc2)CC1`: the GI50 was 33.6 µM (inactive) in the assay with ACHN; 17.1 µM (inactive) in the assay with COLO 205; 57.9 µM (inactive) in the assay on DU-145; 27.6 µM (inactive) in the assay with EKVX; 27.2 µM (inactive) in the assay on HCT-116; 24.4 µM with HCT-15. Moreover, the GI50 in the assay on M14 was 35.1 µM (inactive); in the assay with MDA-MB-231 it was 43.4 µM (inactive); in the assay on MDA-N, 15.6 µM (inactive); with MOLT-4, 13.8 µM (inactive); with NCI-H460 it was 31 µM (inactive); in the assay on OVCAR-4, 34.9 µM (inactive). Further, the GI50 with OVCAR-5 is 34.2 µM (inactive); in the assay on PC-3, 29.3 µM (inactive); with SK-OV-3 it was 30.5 µM (inactive); in the assay on SN12C it was 17.5 µM (inactive); with SNB-19, 45.4 µM (inactive); in the assay with SW-620, 17.4 µM (inactive). Besides, the results for the GI50 with T47D and in the assay on UO-31 were 31.9 µM (inactive) and 12.2 µM (inactive), respectively.
On to `O=C1NC(NNc2ccccc2)=N/C1=C\c1ccco1`, for which the GI50 in the assay with ACHN was 13.2 µM (inactive); in the assay on COLO 205 it was 12.6 µM (inactive); in the assay with DU-145 it was 17.5 µM (inactive); with EKVX, 18.7 µM (inactive); in the assay with HCT-116, 14.3 µM (inactive); in the assay with HCT-15 it was 16 µM. For the same compound, the GI50 was 8.47 µM (inactive) with M14; 20 µM (inactive) in the assay with MDA-MB-231; 26.9 µM (inactive) in the assay with MDA-N; 30.1 µM (inactive) in the assay with MOLT-4; 22.4 µM (inactive) with NCI-H460; 14.6 µM (inactive) in the assay on OVCAR-4. The GI50 in the assay on OVCAR-5 was 37.7 µM (inactive); with PC-3, 19.3 µM (inactive); in the assay on SK-OV-3 it was > 100 µM (inactive); in the assay on SN12C, 22.1 µM (inactive); in the assay with SNB-19 it was 43.5 µM (inactive); in the assay on SW-620 it was 18.1 µM (inactive). The GI50 was 14 µM (inactive) in the assay on T47D and 27.8 µM (inactive) in the assay with UO-31.
On to `Nc1ccccc1OCCCOc1ccccc1N`, for which the GI50 with ACHN is > 100 µM (inactive); with COLO 205 it was > 100 µM (inactive); in the assay with DU-145, > 100 µM (inactive); in the assay on EKVX it was > 100 µM (inactive); in the assay on HCT-116, > 100 µM (inactive); in the assay on HCT-15, greater than 100 µM. Further, the GI50 is > 100 µM (inactive) in the assay on M14; > 100 µM (inactive) with MDA-MB-231; 51.8 µM (inactive) in the assay on MDA-N; > 100 µM (inactive) with MOLT-4; > 100 µM (inactive) in the assay on NCI-H460; > 100 µM (inactive) with OVCAR-4. In addition, the GI50 in the assay on OVCAR-5, in the assay on PC-3, in the assay with SK-OV-3, in the assay with SN12C, in the assay on SNB-19 and in the assay on SW-620 was > 100 µM (inactive) in each case. For the same compound, the GI50 in the assay with T47D and in the assay on UO-31 was > 100 µM (inactive) each time.
As to `CC(=O)c1c(C)cn(S(=O)(=O)NC(=O)Nc2nncs2)c1C`, the GI50 in the assay with ACHN is > 100 µM (inactive); with COLO 205, > 100 µM (inactive); in the assay with DU-145, > 100 µM (inactive); with EKVX, > 100 µM (inactive); in the assay with HCT-116 it was > 100 µM (inactive); in the assay on HCT-15, greater than 100 µM. Further, the GI50 in the assay on M14, with MDA-MB-231, with MDA-N, with MOLT-4, in the assay on NCI-H460 and in the assay with OVCAR-4 was > 100 µM (inactive) throughout. Besides, the GI50 in the assay on OVCAR-5, with PC-3, in the assay on SK-OV-3, in the assay on SN12C, in the assay with SNB-19 and in the assay with SW-620 was > 100 µM (inactive) throughout. Besides, the GI50 was > 100 µM (inactive) in the assay with T47D and 68.9 µM (inactive) in the assay with UO-31.
With `CCCCOCCOC1=C(Cl)C(=O)c2c(O)ccc(O)c2C1=O`, the GI50 was 0.321 µM (active) with ACHN; 0.194 µM (active) in the assay with COLO 205; 1.66 µM (inactive) in the assay with DU-145; 2.94 µM (inactive) with EKVX; 0.261 µM (active) with HCT-116; 0.151 µM in the assay on HCT-15. Also, the GI50 in the assay on M14 is 0.217 µM (active); with MDA-MB-231 it was 0.493 µM (active); with MDA-N, 0.272 µM (active); in the assay on MOLT-4 it was 0.051 µM (active); with NCI-H460, 1.49 µM (inactive); with OVCAR-4 it was 0.822 µM (active). The GI50 in the assay with OVCAR-5 is 1.37 µM (inactive); with PC-3 it was 1.6 µM (inactive); in the assay with SK-OV-3 it was 2.98 µM (inactive); with SN12C it was 0.465 µM (active); in the assay on SNB-19, 1.36 µM (inactive); with SW-620, 0.188 µM (active). Moreover, the values for the GI50 in the assay with T47D and in the assay with UO-31 were 0.532 µM (active) and 0.748 µM (active), respectively.
On to `O=C(NCCc1ccccc1)c1cc(/C=C/c2cc(O)ccc2O)ccc1O`, for which the GI50 was 2.2 µM (inactive) in the assay with ACHN; 5.61 µM (inactive) in the assay on COLO 205; 8.59 µM (inactive) in the assay on DU-145; 2.91 µM (inactive) with EKVX; 1.81 µM (inactive) in the assay on HCT-116; 2.71 µM with HCT-15. The GI50 in the assay with M14 was 5.56 µM (inactive); in the assay with MDA-MB-231 it was 4.36 µM (inactive); with MDA-N, 2.96 µM (inactive); in the assay with MOLT-4 it was 2.52 µM (inactive); in the assay on NCI-H460, 9.44 µM (inactive); with OVCAR-4, 2.27 µM (inactive). Moreover, the GI50 in the assay on OVCAR-5 was 8.69 µM (inactive); in the assay with PC-3 it was 3.56 µM (inactive); in the assay with SK-OV-3, 13 µM (inactive); in the assay on SN12C, 4.92 µM (inactive); in the assay with SNB-19, 6.71 µM (inactive); in the assay with SW-620, 5.71 µM (inactive). Further, the GI50 in the assay with T47D was 1.92 µM (inactive); with UO-31, 1.7 µM (inactive).

The values are drawn from ChEMBL document CHEMBL1201862, “PubChem BioAssay data set” (2004).
